The target in this test is T1, human MNK (N-acetylmannosamine kinase) (Homo sapiens, UniProt Q9Y223).
T1 construct: His; made in house; host or cells: Escherichia coli BL21-CodonPlus (DE3)-RIL
T1 sequence (Q9Y223 406-722 limits assumed): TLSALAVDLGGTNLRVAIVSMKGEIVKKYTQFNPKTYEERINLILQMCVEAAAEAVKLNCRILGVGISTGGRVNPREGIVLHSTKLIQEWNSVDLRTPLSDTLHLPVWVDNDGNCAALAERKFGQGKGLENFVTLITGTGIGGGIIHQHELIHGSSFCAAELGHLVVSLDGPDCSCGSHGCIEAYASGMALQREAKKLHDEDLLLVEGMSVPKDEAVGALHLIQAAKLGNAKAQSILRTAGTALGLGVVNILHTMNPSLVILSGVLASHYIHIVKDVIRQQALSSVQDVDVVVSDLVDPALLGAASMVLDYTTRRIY
Description: MNK activity, coupled optical assay based on NADH consumption. It is filed as biochemical. On the procedure: N-Acetylmannosamine kinase and N-acetylglucosamine kinase expression and […]
Human N-acetylmannosamine kinase (MNK) was expressed and purified using an established method.1 Therefore, his-tagged MNK was expressed in BL21-CodonPlus (DE3)-RIL Escherichia coli (Stragene). Purification was performed by Ni-NTA affinity chromatography, and subsequently size exclusion chromatography on a SuperdexTM HighLoad 16/600 column (GE Healthcare). […]
To evaluate their purity, protein samples were mixed with SDS-PAGE sample buffer, denatured at 90 °C for 1 min and separated by a 10% SDS-PAGE gel. Proteins were visualized with Coomassie G-250 staining solution (Biorad), and PageRuler Prestained Plus (Biorad) was used as a marker (Figure S1 ).
Figure S1. SDS-PAGE of His-tagged MNK (His-MNK) and GST-tagged GNK
(GST-GNK) after affinity chromatography and size exclusion chromatography.
Apparent molecular masses given by the marker are indicated on the left side.
1 J. Martinez, L. D. Nguyen, S. Hinderlich, R. Zimmer, E. Tauberger, W. Reutter, W. Saenger, H. Fan
2 W.A. Weihofen, M. Berger, H. Chen, W. Saenger, and S. Hinderlich, J. Mol. Biol., 2006, 364, 388.
(1 picture or pasted object on this page, not shown here)
Enzyme activity and inhibition studies using N-acetylmannosamine kinase, N-acetylglucosamine kinase and yeast hexokinase
Evaluation MNK activity in presence of the compounds 11, 12, 14b, 16b and 18b The effects of compounds 11, 12, 14b, 16b, or 18b on MNK enzyme activity were evaluated using a coupled optical assay. 55 µl reaction mixture contained the following buffers and reagents: 39.5 µl buffer A (65 mM MgCl2, 200 mM Tris-HCl, pH 8.1), 5 µl ATP (50 mM), 3.5 µl NADH (30 mM), 2 µl phosphoenolpyruvate (100 mM), 2 U pyruvate-kinase, 2 U lactate-dehydrogenase, 5 µl ManNAc of varying concentrations. Subsequently, 10 µl of the compounds 11, 12, 14b, 16b and 18b were added in varying concentrations. The reaction was initiated by adding 0.6 µg MNK in 35 µL buffer B (10 mM Tris-HCl, 150 mM NaCl, pH 8.0). Samples were incubated at 37°C. Spectrophotometric measurements of NADH concentration was performed at 340 nm. Results obtained were normalized to blanks, consisting of 55 µl reaction mixture, 10 µl H 2O and 35 µl buffer B without MNK.
GNK and hexokinase inhibition assays using compound 14b
To evaluate the specificity of the inhibitor 14b towards other sugar kinases, we performed further inhibition experiments using human GNK and hexokinase (HK) from yeast (Sigma, H-5000). 39.5 µl Buffer A (see above), 5 µl ATP (50 mM), 3.5 µl NADH (30 mM), 2 µl phosphoenolpyruvate (100 mM), 2 U pyruvate-kinase, 2 U lactate-dehydrogenase, 5 µl GlcNAc (7.5 mM, for GNK experiments), or 5 µl ManNAc (7.5 mM, for GNK experiments), or glucose (5 mM, for HK experiments), and 10 µl 14b (varying concentrations) were mixed with either 1 µg GNK or 0.2 µg HK in 35 µL buffer B. The decrease of NADH was measured in a spectrophotometer […]
5 mM for HK activity, respectively (Figure S2).
Figure S2. Inhibition of GNK and HK activity by 14b. Values are means ± SEM of […]

Turning to `CC(=O)N[C@@H]1C(O)O[C@H](C[Se][Se]C[C@H]2OC(O)[C@@H](NC(C)=O)[C@@H](O)[C@@H]2O)[C@@H](O)[C@@H]1O` (stereo partly drawn) [Compound 14b], the “mode of inhibition towards ManNAc” value (14b 25 μM, different concentrations of ManNAc) was “competitive inhibition”. Moreover, under “14b 25 μM, different concentrations of ManNAc, Lineweaver-Burk plot, read-out: inhibitor constant (Ki)”, the inhibition constant (Ki) (as a rule, a measure of affinity in units of concentration, obtained from inhibition or displacement) was 15.7 µM. Moreover, the IC50 (commonly the concentration at which inhibition is half-maximal) (purified human MNK, ManNAc 125 μM, ATP, means ± SEM, read-out: IC50 for MNK inhibition) amounted to 8.5 µM.

Source of the values: publication PMC6013775, “Inhibition of the key enzyme of sialic acid biosynthesis by C6-Se modified N-acetylmannosamine analogs” (Chemical Science, 2016).
